Reference: PubChem BioAssay (NCI)
Where “and” joins values, the source holds several entries; their conditions need not be identical. Equal values may be shown once.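 Values below derive from 48-hour exposures of cells grown in 96-well plates, with endpoints linearly interpolated between the two concentrations bracketing the appropriate inhibition level. Here, GI50 denotes the concentration required for 50% inhibition of growth. TGI: total growth inhibition.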

Assays:
Assay in all cases: DTP human tumour cell line panel, 48 h
ACHN renal = tested on: ACHN renal
COLO 205 colon = tested on: COLO 205 colon
HS 578T breast = tested on: HS 578T breast
K-562 leukemia = tested on: K-562 leukemia
MALME-3M melanoma = tested on: MALME-3M melanoma
OVCAR-4 ovarian = tested on: OVCAR-4 ovarian
SF-539 CNS = tested on: SF-539 CNS
SK-OV-3 ovarian = tested on: SK-OV-3 ovarian
TK-10 renal = tested on: TK-10 renal
HCC-2998 colon = tested on: HCC-2998 colon

| Compound | TGI (ACHN renal) [µM] | TGI (COLO 205 colon) [µM] | TGI (HS 578T breast) [µM] | TGI (K-562 leukemia) [µM] | TGI (MALME-3M melanoma) [µM] | TGI (OVCAR-4 ovarian) [µM] | TGI (SF-539 CNS) [µM] | TGI (SK-OV-3 ovarian) | TGI (TK-10 renal) [µM] | GI50 (ACHN renal) [µM] | GI50 (COLO 205 colon) [µM] | GI50 (HCC-2998 colon) [µM] | TGI (HCC-2998 colon) [µM] | GI50 (HS 578T breast) [µM] | GI50 (K-562 leukemia) [µM] | GI50 (OVCAR-4 ovarian) [µM] | GI50 (SF-539 CNS) [µM] | GI50 (SK-OV-3 ovarian) | GI50 (TK-10 renal) [µM] | GI50 (MALME-3M melanoma) [µM] |
| --- | --- | --- | --- | --- | --- | --- | --- | --- | --- | --- | --- | --- | --- | --- | --- | --- | --- | --- | --- | --- |
| NC(=O)NCCSC1CCCCC1O (stereo not given) | > 100 | > 100 | > 100 | > 100 | > 100 | > 100 | > 100 | > 100 µM | > 100 |  |  |  |  |  |  |  |  |  |  |  |
| COc1ccc(/C=C\c2cc(OC)c(OC)c(OC)c2)cc1OCC(=O)Nc1nc2ccc(OC(F)(F)F)cc2s1 | > 100 | > 100 | > 100 | > 100 |  | > 100 | 6.13 | > 100 µM | > 100 | 8.31 | 43.3 | 17.1 | > 100 | 4.33 | 3.43 | 5.34 | 2.28 | 8.42 µM | 18.6 |  |
| O=CN1CCN(C=S)CC1 | > 100 | > 100 |  | > 100 | > 100 | > 100 | > 100 | > 100 µM | > 100 |  |  |  | > 100 |  |  |  |  |  |  |  |
| COc1cc(OC)cc(-c2cncn2-c2ccc(-c3nc4cc(OC)cc(OC)c4s3)cc2)c1 | > 100 |  | > 100 | > 100 |  |  | > 100 | > 100 µM | > 100 | > 100 |  | > 100 | > 100 | 5.02 | 3.22 |  | 5.76 | 4.69 µM | 16.8 |  |
| CCCCCCCCCCCCCCCCn1cc[n+](Cc2ccccc2)c1C | 7 |  | > 100 |  | 2.61 | 4.55 | 4.36 | 4.67 µM and 1.81 µM | 2.2 | 1.89 |  | 0.413 | 1.64 | 3.62 |  | 0.451 | 1.67 | 1.71 µM and 0.5 µM | 0.86 | 0.809 |
| CCOC(=O)C(=O)Nc1ccc(Cl)c(C(F)(F)F)c1 | > 100 | > 100 |  | > 100 | > 100 | > 100 | > 100 | > 100 µM | > 100 |  |  |  | > 100 |  |  |  |  |  |  |  |
| NC1=NC(c2ccc(F)cc2)C2=C(N1)c1ccc3ccccc3c1OCC2 (stereo not given) | > 100 |  | > 100 | > 100 | > 100 | > 100 | 2.45 | > 100 µM | > 100 | 29.7 |  |  |  | 11.4 | 3.1 | > 100 | 0.343 | 26.8 µM | 14.5 | 18.5 |
| CC(=O)NC1=C(NCc2ccc(Cl)cc2)C(=O)c2ccccc2C1=O | 6.13 | 11.4 |  | 16.7 | 16.5 | 13.4 | 10.5 | > 50 µM | 15.1 |  |  |  | > 50 |  |  |  |  |  |  |  |
